Source: ChEMBL document CHEMBL3046756, “Synthesis, anti-inflammatory, and structure antioxidant activity relationship of novel 4-quinazoline” (Med Chem Res, 2013)

Assays:
[1] = tested on: Rattus norvegicus; assay: Anti-inflammatory activity in Wistar Rattus norvegicus (rat) assessed as inhibition of carrageenan-induced paw edema at 50 mg/kg, po administered 30 min prior to carrageenan challenge measured at 120 min relative to untreated control; assay type: functional
[2] = tested on: Rattus norvegicus; assay: Effect on glutathione peroxidase level in Wistar Rattus norvegicus (rat) liver measured GSH oxidized per min per mg of protein at 100 mg/kg, po after 10 days (reference value: 47.47 +/- 3.86 mmol); assay type: functional
[3] = tested on: Rattus norvegicus; assay: Effect on LDH level in Wistar Rattus norvegicus (rat) serum at 150 mg/kg, po qd after 10 days (reference value: 249.89 +/- 13.26 U/I); assay type: functional
[4] = tested on: Mus musculus; assay: Toxicity in albino Mus musculus (mouse) assessed as change in eye color at 650 to 1800 mg/kg, ip measured within 24 hr; assay type: organism-based; parameters: dose 650-1800 mg/kg, route intraperitoneal; settings: in vivo
[5] = tested on: Mus musculus; assay: Toxicity in albino Mus musculus (mouse) assessed as tremor in hind limbs at 650 to 1800 mg/kg, ip measured within 24 hr; assay type: organism-based, Hindlimb; parameters: dose 650-1800 mg/kg, route intraperitoneal; settings: in vivo
[6] = tested on: Rattus norvegicus; assay: Effect on SGPT level in Wistar Rattus norvegicus (rat) at 50 mg/kg, po qd after 10 days (reference value: 38.77 +/- 4.25 U/I); assay type: functional
[7] = tested on: Rattus norvegicus; assay: Effect on TBARS level in Wistar Rattus norvegicus (rat) serum at 50 mg/kg, po qd after 10 days (reference value: 0.82 +/- 0.073 nmol/ml); assay type: functional
[8] = tested on: Mus musculus; assay: Toxicity in albino Mus musculus (mouse) assessed as change in toes color at 650 to 1800 mg/kg, ip measured within 24 hr; assay type: organism-based; parameters: dose 650-1800 mg/kg, route intraperitoneal; settings: in vivo
[9] = tested on: Rattus norvegicus; assay: Anti-inflammatory activity in Wistar Rattus norvegicus (rat) assessed as inhibition of carrageenan-induced paw edema at 100 mg/kg, po administered 30 min prior to carrageenan challenge measured at 60 min relative to untreated control; assay type: functional
[10] = tested on: Rattus norvegicus; assay: Effect on GST level in Wistar Rattus norvegicus (rat) liver measured CDNB conjugated per min per mg of protein at 150 mg/kg, po after 10 days (reference value: 0.86 +/- 0.08 mmol); assay type: functional
[11] = tested on: Mus musculus; assay: Toxicity in albino Mus musculus (mouse) assessed as rapid respiration at 650 to 1800 mg/kg, ip measured within 1 to 2 hr; assay type: organism-based; parameters: route intraperitoneal; settings: in vivo
[12] = tested on: Rattus norvegicus; assay: Effect on gamma-glutamyl transferase level in Wistar Rattus norvegicus (rat) serum at 150 mg/kg, po qd after 10 days (reference value: 0.57 +/- 0.04 U/I); assay type: functional
[13] = tested on: Rattus norvegicus; assay: Antipyretic activity in Wistar Rattus norvegicus (rat) assessed as decrease in Brewer's yeast solution-induced hyperthermia at 100 mg/kg, po measured after 1 hr (reference value: 37 +/- 3.55 degC); assay type: functional
[14] = tested on: Rattus norvegicus; assay: Antipyretic activity in Wistar Rattus norvegicus (rat) assessed as decrease in Brewer's yeast solution-induced hyperthermia at 150 mg/kg, po measured after 1 hr (reference value: 37 +/- 3.55 degC); assay type: functional
[15] = tested on: Rattus norvegicus; assay: Effect on SGOT level in Wistar Rattus norvegicus (rat) at 100 mg/kg, po qd after 10 days (reference value: 145.50 +/- 13.86 U/I); assay type: functional
[16] = tested on: Rattus norvegicus; assay: Anti-inflammatory activity in Wistar Rattus norvegicus (rat) assessed as inhibition of carrageenan-induced paw edema at 150 mg/kg, po administered 30 min prior to carrageenan challenge measured at 180 min relative to untreated control; assay type: functional
[17] = tested on: Rattus norvegicus; assay: Effect on glutathione peroxidase level in Wistar Rattus norvegicus (rat) liver measured GSH oxidized per min per mg of protein at 150 mg/kg, po after 10 days (reference value: 47.47 +/- 3.86 mmol); assay type: functional
[18] = Antioxidant activity assessed as Fe2+ chelating activity at 1.25 mg/ml after 90 min by spectrophotometric analysis; assay type: functional
[19] = tested on: Rattus norvegicus; assay: Effect on gamma-glutamyl transferase level in Wistar Rattus norvegicus (rat) serum at 50 mg/kg, po qd after 10 days (reference value: 0.57 +/- 0.04 U/I); assay type: functional
[20] = tested on: Mus musculus; assay: Toxicity in albino Mus musculus (mouse) assessed as change in temperature at extremities at 650 to 1800 mg/kg, ip measured within 24 hr; assay type: organism-based; parameters: dose 650-1800 mg/kg, route intraperitoneal; settings: in vivo
[21] = tested on: Rattus norvegicus; assay: Anti-inflammatory activity in Wistar Rattus norvegicus (rat) assessed as inhibition of carrageenan-induced paw edema at 150 mg/kg, po administered 30 min prior to carrageenan challenge measured at 120 min relative to untreated control; assay type: functional
[22] = tested on: Rattus norvegicus; assay: Effect on gamma-glutamyl transferase level in Wistar Rattus norvegicus (rat) serum at 100 mg/kg, po qd after 10 days (reference value: 0.57 +/- 0.04 U/I); assay type: functional
[23] = tested on: Rattus norvegicus; assay: Antipyretic activity in Wistar Rattus norvegicus (rat) assessed as decrease in Brewer's yeast solution-induced hyperthermia at 100 mg/kg, po measured after 2 hr (reference value: 37 +/- 1.7 degC); assay type: functional
[24] = tested on: Rattus norvegicus; assay: Effect on GSH level in Wistar Rattus norvegicus (rat) liver measured per mg of protein at 50 mg/kg, po after 10 days (reference value: 1.84 +/- 0.092 mg); assay type: functional
[25] = tested on: Rattus norvegicus; assay: Effect on TBARS level in Wistar Rattus norvegicus (rat) serum at 150 mg/kg, po qd after 10 days (reference value: 0.82 +/- 0.073 nmol/ml); assay type: functional
[26] = tested on: Rattus norvegicus; assay: Antipyretic activity in Wistar Rattus norvegicus (rat) assessed as decrease in Brewer's yeast solution-induced hyperthermia at 50 mg/kg, po measured after 2 hr (reference value: 37 +/- 1.7 degC); assay type: functional
[27] = tested on: Rattus norvegicus; assay: Effect on GST level in Wistar Rattus norvegicus (rat) liver measured CDNB conjugated per min per mg of protein at 100 mg/kg, po after 10 days (reference value: 0.86 +/- 0.08 mmol); assay type: functional
[28] = tested on: Rattus norvegicus; assay: Antipyretic activity in Wistar Rattus norvegicus (rat) assessed as decrease in Brewer's yeast solution-induced hyperthermia at 100 mg/kg, po measured after 3 hr (reference value: 36.8 +/- 1.9 degC); assay type: functional
[29] = tested on: Rattus norvegicus; assay: Anti-inflammatory activity in Wistar Rattus norvegicus (rat) assessed as inhibition of carrageenan-induced paw edema at 100 mg/kg, po administered 30 min prior to carrageenan challenge measured at 180 min relative to untreated control; assay type: functional
[30] = tested on: Rattus norvegicus; assay: Anti-inflammatory activity in Wistar Rattus norvegicus (rat) assessed as inhibition of carrageenan-induced paw edema at 150 mg/kg, po administered 30 min prior to carrageenan challenge measured at 60 min relative to untreated control; assay type: functional
[31] = tested on: Rattus norvegicus; assay: Anti-inflammatory activity in Wistar Rattus norvegicus (rat) assessed as inhibition of carrageenan-induced paw edema at 50 mg/kg, po administered 30 min prior to carrageenan challenge measured at 60 min relative to untreated control; assay type: functional
[32] = tested on: Mus musculus; assay: Toxicity in albino Mus musculus (mouse) assessed as increase in heart rate at 150 to 900 mg/kg, ip measured within 1 to 2 hr; assay type: organism-based; parameters: route intraperitoneal; settings: in vivo
[33] = tested on: Mus musculus; assay: Toxicity in albino Mus musculus (mouse) assessed as tremor in hind limbs at 150 to 900 mg/kg, ip measured within 24 hr; assay type: organism-based, Hindlimb; parameters: dose 150-900 mg/kg, route intraperitoneal; settings: in vivo
[34] = tested on: Mus musculus; assay: Toxicity in albino Mus musculus (mouse) assessed as rapid respiration at 150 to 900 mg/kg, ip measured within 1 to 2 hr; assay type: organism-based; parameters: route intraperitoneal; settings: in vivo

| SMILES | inhibition in vivo at 50 mg/kg [1] [%] | Activity [2] [mmol] | Activity [3] [U/L] | Activity [6] [U/L] | Activity [7] [nmol/mL] | inhibition in vivo at 100 mg/kg [9] [%] | Activity [10] [mmol] | Activity [12] [U/L] | T [13] [°C] | T [14] [°C] | Activity [15] [U/L] | inhibition in vivo at 150 mg/kg [16] [%] | Activity [17] [mmol] | Activity [19] [U/L] | inhibition in vivo at 150 mg/kg [21] [%] | Activity [22] [U/L] | T [23] [°C] | Activity [24] [mg] | Activity [25] [nmol/mL] | T [26] [°C] | also measured |
| --- | --- | --- | --- | --- | --- | --- | --- | --- | --- | --- | --- | --- | --- | --- | --- | --- | --- | --- | --- | --- | --- |
| COC(=O)c1ccccc1NC(=O)/C=C/c1ccc(O)c(O)c1 | 63.8 | 53.74 | 232.48 | 42.47 | 0.77 | 45.4 | 1.97 | 0.49 | 37.2 | 36.9 | 133.79 | 78.9 | 57.89 | 0.53 | 76 | 0.51 | 36.7 | 1.94 | 0.7 | 37 | Activity [4]: Toxic; Activity [5]: Toxic; Activity [8]: Toxic; Activity [11]: Toxic; Activity [18]: 30%; Activity [20]: Toxic; Activity [27]: 1.54 mmol; T [28]: 36.8 °C; inhibition in vivo at 100 mg/kg [29]: 70.7%; inhibition in vivo at 150 mg/kg [30]: 52.7%; inhibition in vivo at 50 mg/kg [31]: 41.6% |
| O=c1c2ccccc2nc2n1NC(c1ccc(O)c(O)c1)C2 (centres undefined) | 53.7 | 51.38 | 238.21 | 41.97 | 0.82 | 38 | 1.34 | 0.5 | 37.8 | 37.5 | 136.34 | 54.6 | 53.45 | 0.55 | 58.2 | 0.51 | 36 | 1.8 | 0.8 | 36.5 | Activity [32]: Toxic; Activity [33]: Toxic; Activity [34]: Toxic; Activity [27]: 1.15 mmol; T [28]: 36.8 °C; inhibition in vivo at 100 mg/kg [29]: 48.3%; inhibition in vivo at 150 mg/kg [30]: 34.2%; inhibition in vivo at 50 mg/kg [31]: 28.1% |
